Data as given in ChEMBL document CHEMBL1201862, “PubChem BioAssay data set” (2004).
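Each compound was tested at five concentrations against cells in 96-well plates for 48 hours. GI50 = concentration required for 50% inhibition of growth.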 The source made the active and inactive calls. Cut-off read from the data, not from the text of the source: active = GI50 up to about 1.1 µM and inactive = higher.

Tests used:
Experiment in all cases: NCI tumour cell line growth inhibition, 48 h
[1] = test system: Hs-578T
[2] = test system: HCT-116
[3] = test system: OVCAR-3
[4] = test system: SF-268
[5] = test system: 786-0
[6] = test system: IGROV-1
[7] = test system: SK-MEL-2
[8] = test system: COLO 205
[9] = test system: SF-539
[10] = test system: A549
[11] = test system: MDA-MB-435
[12] = test system: UACC-257
[13] = test system: RPMI-8226
[14] = test system: SF-295
[15] = test system: HCT-15
[16] = test system: SK-MEL-28
[17] = test system: NCI-H460
[18] = test system: BT-549
[19] = test system: HOP-92
[20] = test system: NCI-H23
[21] = test system: HL-60
[22] = test system: M14
[23] = test system: MCF7
[24] = test system: NCI-H226
[25] = test system: TK-10
[26] = test system: K562
[27] = test system: A498
[28] = test system: ACHN
[29] = test system: RXF 393
[30] = test system: SN12C
[31] = test system: SK-MEL-5
[32] = test system: OVCAR-8
[33] = test system: U-251
[34] = test system: SNB-75
[35] = test system: NCI/ADR-RES
[36] = test system: HCC 2998
[37] = test system: UO-31
[38] = test system: SR
[39] = test system: SNB-19
[40] = test system: SW-620
[41] = test system: OVCAR-4
[42] = test system: OVCAR-5
[43] = test system: LOX IMVI
[44] = test system: MOLT-4
[45] = test system: UACC-62
[46] = test system: SK-OV-3
[47] = test system: T47D
[48] = test system: HT-29
[49] = test system: DU-145
[50] = test system: CAKI-1
[51] = test system: HOP-62
[52] = test system: MDA-MB-231
[53] = test system: EKVX
[54] = test system: CCRF-CEM
[55] = test system: NCI-H522
[56] = test system: KM12
[57] = test system: Malme-3M
[58] = test system: PC-3
[59] = test system: MDA-N

Compound: CC1(C)CC[C@]2(C(=O)O)CC[C@]3(C)[C@H](C(=O)C=C4[C@@]5(C)C=C(C#N)C(=O)C(C)(C)[C@@H]5CC[C@]43C)[C@@H]2C1 [BARDOXOLONE]
- GI50 [1]: 671 nM (active)
- GI50 [2]: 294 nM (active)
- GI50 [3]: 102 nM (active)
- GI50 [4]: 659 nM (active)
- GI50 [5]: 160 nM (active)
- GI50 [6]: 762 nM (active)
- GI50 [7]: 1000 nM (active)
- GI50 [8]: 215 nM (active)
- GI50 [9]: 569 nM (active)
- GI50 [10]: 1160 nM (inactive)
- GI50 [11]: 537 nM (active)
- GI50 [12]: 1140 nM (inactive)
- GI50 [13]: 21.4 nM (active)
- GI50 [14]: 573 nM (active)
- GI50 [15]: 113 nM
- GI50 [16]: 160 nM (active)
- GI50 [17]: 486 nM (active)
- GI50 [18]: 731 nM (active)
- GI50 [19]: 1290 nM (inactive)
- GI50 [20]: 174 nM (active)
- GI50 [21]: 205 nM (active)
- GI50 [22]: 769 nM (active)
- GI50 [23]: 265 nM (active)
- GI50 [24]: 416 nM (active)
- GI50 [25]: 678 nM (active)
- GI50 [26]: 263 nM (active)
- GI50 [27]: 391 nM (active)
- GI50 [28]: 543 nM (active)
- GI50 [29]: 99.5 nM (active)
- GI50 [30]: 493 nM (active)
- GI50 [31]: 258 nM (active)
- GI50 [32]: 577 nM (active)
- GI50 [33]: 274 nM (active)
- GI50 [34]: 450 nM (active)
- GI50 [35]: 993 nM (active)
- GI50 [36]: < 41.2 nM (active)
- GI50 [37]: 1060 nM (active)
- GI50 [38]: 56.1 nM (active)
- GI50 [39]: 303 nM (active)
- GI50 [40]: 492 nM (active)
- GI50 [41]: 1030 nM (active)
- GI50 [42]: 488 nM (active)
- GI50 [43]: 94.4 nM (active)
- GI50 [44]: 259 nM (active)
- GI50 [45]: 200 nM (active)
- GI50 [46]: 875 nM (active)
- GI50 [47]: 414 nM (active)
- GI50 [48]: 495 nM (active)
- GI50 [49]: 508 nM (active)
- GI50 [50]: 687 nM (active)
- GI50 [51]: 665 nM (active)
- GI50 [52]: 1310 nM (inactive)
- GI50 [53]: 1340 nM (inactive)
- GI50 [54]: 220 nM (active)
- GI50 [55]: 923 nM (active)
- GI50 [56]: 279 nM (active)
- GI50 [57]: 224 nM (active)
- GI50 [58]: 311 nM (active)

Compound: CCOC(=O)[C@@H]1[C@@H](c2ccccc2)N(C)O[C@@]1(c1ccccc1)C(F)(F)F
- GI50 [1]: > 100000 nM (inactive)
- GI50 [2]: 36500 nM (inactive)
- GI50 [3]: 97100 nM (inactive)
- GI50 [4]: > 100000 nM (inactive)
- GI50 [5]: > 100000 nM (inactive)
- GI50 [6]: > 100000 nM (inactive)
- GI50 [7]: 25500 nM (inactive)
- GI50 [8]: > 100000 nM (inactive)
- GI50 [10]: 47300 nM (inactive)
- GI50 [11]: 28400 nM (inactive)
- GI50 [12]: 55000 nM (inactive)
- GI50 [13]: 20700 nM (inactive)
- GI50 [14]: 64600 nM (inactive)
- GI50 [15]: 40100 nM
- GI50 [16]: 85900 nM (inactive)
- GI50 [18]: > 100000 nM (inactive)
- GI50 [19]: > 100000 nM (inactive)
- GI50 [20]: 59600 nM (inactive)
- GI50 [22]: 31000 nM (inactive)
- GI50 [24]: 23100 nM (inactive)
- GI50 [25]: > 100000 nM (inactive)
- GI50 [26]: > 10000 nM (inactive)
- GI50 [27]: > 100000 nM (inactive)
- GI50 [28]: 44800 nM (inactive)
- GI50 [29]: 40200 nM (inactive)
- GI50 [30]: > 100000 nM (inactive)
- GI50 [31]: 27000 nM (inactive)
- GI50 [32]: > 100000 nM (inactive)
- GI50 [33]: 50400 nM (inactive)
- GI50 [34]: > 100000 nM (inactive)
- GI50 [35]: > 100000 nM (inactive)
- GI50 [37]: > 100000 nM (inactive)
- GI50 [39]: > 100000 nM (inactive)
- GI50 [40]: 43700 nM (inactive)
- GI50 [41]: 77300 nM (inactive)
- GI50 [42]: > 100000 nM (inactive)
- GI50 [43]: 70500 nM (inactive)
- GI50 [44]: > 10000 nM (inactive)
- GI50 [45]: 43500 nM (inactive)
- GI50 [46]: 43700 nM (inactive)
- GI50 [47]: 67900 nM (inactive)
- GI50 [59]: 52800 nM (inactive)
- GI50 [48]: 18700 nM (inactive)
- GI50 [49]: > 100000 nM (inactive)
- GI50 [50]: > 100000 nM (inactive)
- GI50 [51]: > 100000 nM (inactive)
- GI50 [52]: > 100000 nM (inactive)
- GI50 [53]: 86300 nM (inactive)
- GI50 [54]: 20100 nM (inactive)
- GI50 [55]: 39900 nM (inactive)
- GI50 [56]: 58900 nM (inactive)
- GI50 [57]: 44200 nM (inactive)
- GI50 [58]: 58500 nM (inactive)
